Measured values from patent US4337256A, “1-Phenyl isoquinoline-5-acetic acid compounds and analgesic compositions thereof” (priority 1978, dated 1982).
Read-outs that look alike come from different tables or passages of the source.

What was measured:
[1] = reported in J. Med. Chem. 1978, 21, 582-585; cited from earlier work
stomach mucosal membrane = test: Ulcerogenic activity: gastric ulceration; format: in vivo, male Wistar rats; settings: p.o., 4 h
Procedure: Each of the test compounds was orally administered by the same way as in the test on anti-inflammatory activity to male Wistar rats weighing 120 to 150 g which had been fasted for 24 hours. Four hours later, they were killed with ether.

Toxicity test (LD50) = settings: mouse, in vivo; oral, observed for 1 week; parentheses show 95% confidence limits
Procedure: Each of the test compounds was suspended in a physiological saline solution having dissolved therein 2% of Tween 80, and orally administered through a tube to groups of ddY mice (male: 19 to 22 g) each group consisting of 6 mice. The mice were then observed for 1 week. The LD50 values were calculated from the lethality in accordance with the method of Litchfield-Wilcoxon.

[2] = tested on: writhings (acetic acid) in the mice; test: Analgesic activity: acetic acid writhing test; format: in vivo, male mice (ddY); settings: Mus musculus, po, read-out: ED50 (analgesic, writhing inhibition)
Procedure: Male mice (ddY) weighing 18 to 22 g were used in groups each consisting of 10 mice. Each of the compounds was suspended in an aqueous solution of 0.5% of carboxymethyl cellulose and 2.0% of Tween 80, and administered orally through a tube. After one hour from the administration, 0.6% acetic acid was administered intraperitoneally in an amount of 0.1 ml per 10 g of body weight, and the number of writhings which occurred in the mice during a period of 20 minutes after the administration was measured. The percent inhibition was calculated from the following equation, and the ED50 values of the test compounds were calculated from the percent inhibition in accordance with the method of Litchfield-Wilcoxon.

[3] = molecular target: T1, microsomes of bovine seminal vesicle (a prostaglandin synthesizing enzyme) (Bos taurus, UniProt O62664); test: Activity of inhibiting prostaglandin synthesis (prostaglandin E2 formed); format: biochemical; settings: 37° C., 5 minutes, pH 8.0, 50 μM arachidonic acid; dissolved as a sodium salt; read-out: ED50 (inhibition of prostaglandin synthesis)
T1 construct: a microsome fraction prepared from bovine seminal vesicle; from tissue; host or cells: bovine seminal vesicle, lyophilized microsome fraction
T1 sequence (O62664 25-600): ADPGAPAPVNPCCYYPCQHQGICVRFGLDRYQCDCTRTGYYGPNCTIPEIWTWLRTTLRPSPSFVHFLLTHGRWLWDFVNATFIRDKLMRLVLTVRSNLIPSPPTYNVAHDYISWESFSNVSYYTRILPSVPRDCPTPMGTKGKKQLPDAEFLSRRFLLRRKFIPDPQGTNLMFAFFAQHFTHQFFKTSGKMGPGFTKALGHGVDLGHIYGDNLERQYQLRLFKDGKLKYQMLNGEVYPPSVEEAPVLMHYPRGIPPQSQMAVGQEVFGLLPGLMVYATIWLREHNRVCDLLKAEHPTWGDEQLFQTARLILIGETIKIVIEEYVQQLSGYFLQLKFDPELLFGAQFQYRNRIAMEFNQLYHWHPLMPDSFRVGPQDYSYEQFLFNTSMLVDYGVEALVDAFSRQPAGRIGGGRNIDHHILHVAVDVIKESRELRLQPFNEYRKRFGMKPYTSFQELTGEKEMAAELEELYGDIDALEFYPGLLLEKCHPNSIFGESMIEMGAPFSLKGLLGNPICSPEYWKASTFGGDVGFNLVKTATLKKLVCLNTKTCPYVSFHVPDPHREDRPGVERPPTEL
Procedure: The activity of inhibiting prostaglandin synthesis was measured by adding a test compound, i.e. a substance having the activity of inhibiting prostaglandin synthesis, to a prostaglandin synthesizing reaction system shown below, and quantitatively determining to what extent synthesis of prostaglandin was inhibited.
100 mM tris-HCl buffer (pH=8.0),
0.0125 μCi/ml (14c)-arachidonic acid,
1 mg/ml, as protein, of microsomes of bovine seminal vesicle (a prostaglandin synthesizing enzyme obtained by lyophylizing a microsome fraction prepared from bovine seminal vesicle).
The test compound was added to the reaction system to adjust the total amount to 1 ml. As a control, 1 ml of the above reaction system without addition of the test compound was provided. Each of these was incubated with shaking at 37° C. for 5 minutes, and 0.5 ml of 0.3 M citric acid was added to stop the reaction. The prostaglandin formed was extracted with ethyl acetate, fractionated by thin-layer chromatography. The radioactivity of each fraction was measured by a liquid scintillation counter. The amount of prostaglandin E2 formed in the group to which the test compound had been applied was measured, and the percent inhibition was calculated in accordance with the following equation. From the percent inhibition, the ED50 value of the test compounds was calculated in accordance with the Litchfield-Wilcoxon method. […]

[4] = tested on: left hind paw edema (carrageenin); test: Anti-inflammatory activity: carrageenin-induced left hind paw edema; format: in vivo, male Wistar rats; settings: Rattus norvegicus, po, read-out: Percent inhibition (edema)
Procedure: Male Wistar rats weighing 120 to 150 g which had been fasted for 24 hours were used in groups each consisting of 5 rats. In each group, the volumes of the left hind paw were measured by a volume differential meter (made by Ugo Basile Company), and each of the test compounds was suspended in an aqueous solution of 0.5% of carboxymethyl cellulose and 2.0% of Tween 80, and administered orally through a tube. After one hour from the administration, 0.1 ml of a 1% suspension of carrageenin in distilled water was subcutaneously injected into the plantar tissues of the left hind paw. Three hours later, the volumes of the left hind paw were again measured. The increase in volume of the left hind paw of each rat in each group (the volume of edema) was measured.

platelet aggregation = test: Activity of inhibiting platelet aggregation (collagen-induced); format: cell-based, male Hartley guinea pig; settings: Cavia porcellus, 2 min, read-out: ED50 (inhibition of platelet aggregation)
Procedure: The citrated blood was centrifuged at a speed of 1,000 rpm for 10 minutes. The supernatant was collected to obtain a platelet-rich plasma. Separately, it was contrifuged at a speed of 3,000 rpm for 15 minutes, and the supernatant was collected to obtain a platelet-poor plasma. […] The platelet-rich plasma (250 μl) was placed in a cuvet, and preliminarily heated at 37° C. for 2 minutes, and then while stirring at a speed of 1,000 rpm, 31 μl of a test solution was added. The mixture was incubated for 2 minutes with stirring, and then 31 μl of a collagen solution was added, and the maximum aggregation rate of platelet was measured. The amount of the collagen applied was adjusted to the minimum effective amount which induced irreversible platelet aggregation. This amount was determined for each experiment. The percent inhibition of the test solution-applied group was determined in accordance with the following equation. From the percent inhibition, the ED50 value of the test compounds was calculated in accordance with the Litchfield-Wilcoxon method. Each test compound was dissolved in distilled water as a sodium salt.

digestive organs = settings: known agents, statement in words; cited from earlier work
[5] = p.o. 1 h before 0.6% acetic acid i.p., parentheses show 95% confidence limits
[6] = 1 mg/kg, p.o., 1 h before carrageenin, measured 3 h later
[7] = 3 mg/kg, p.o., 1 h before carrageenin, measured 3 h later
[8] = 10 mg/kg, p.o., 1 h before carrageenin, measured 3 h later

## NC(=O)Cc1cc2ccccc2c(-c2ccc(Cl)cc2)n1 [1-(4-chlorophenyl)-3-carbamoylmethyl isoquinoline]
[1]
  anti-inflammatory and analgesic activities: has anti-inflammatory and analgesic activities

## O=C(O)Cc1cccc2c(-c3ccc(Cl)cc3)nccc12 [A, 1-(4-chlorophenyl)isoquinoline-5-acetic acid]
Stomach mucosal membrane; 10 mg/kg
  Gastric ulceration: bleeding at the mucosal membrane: 0/10
  Gastric ulceration: damage beneath the mucosal membrane: 0/10
Stomach mucosal membrane; 30 mg/kg
  Gastric ulceration: bleeding at the mucosal membrane: 0/5
  Gastric ulceration: damage beneath the mucosal membrane: 0/5
Toxicity test (LD50)
  LD50 at 168 h: 182 mg/kg
[2]; [5]
  ED50: 1.4 mg/kg
[3]
  IC50: 0.82 µM
[4]; 0.3 mg/kg, p.o., 1 h before carrageenin, measured 3 h later
  inhibition in vivo at 0.3 mg/kg: 22.7 ± 6.1%
[4]; [6]
  inhibition in vivo at 1 mg/kg: 27.3 ± 7.4%
[4]; [7]
  inhibition in vivo at 3 mg/kg: 44.6 ± 5.8%
Platelet aggregation; collagen-induced, platelet-rich plasma, dissolved as a sodium salt, parentheses show 95% confidence limits
  IC50: 1.9 µM

## COc1ccc2c(c1)c(CC(=O)O)c(C)n2C(=O)c1ccc(Cl)cc1 [Indomethacin, reference compound]
Toxicity test (LD50)
  LD50 at 168 h: 17.3 mg/kg
[2]; 1 h
  ED50: 0.21 mg/kg
Digestive organs
  troubles in the digestive organs: fairly heavy troubles in the digestive organs
[4]; 3 h
  inhibition in vivo at 1 mg/kg: 15.9 ± 6.2%
  inhibition in vivo at 3 mg/kg: 29.8 ± 5.7%
  inhibition in vivo at 10 mg/kg: 40.6 ± 5.1%

## Cc1ccc(-c2nccc3c(CC(=O)O)cccc23)cc1 [Compound E, 1-(4-methylphenyl)isoquinoline-5-acetic acid]
Stomach mucosal membrane; 10 mg/kg
  Gastric ulceration: bleeding at the mucosal membrane: 0/5
  Gastric ulceration: damage beneath the mucosal membrane: 0/5
Stomach mucosal membrane; 30 mg/kg
  Gastric ulceration: bleeding at the mucosal membrane: 0/5
  Gastric ulceration: damage beneath the mucosal membrane: 4/5
Toxicity test (LD50)
  LD50 at 168 h: > 300 mg/kg
[2]; [5]
  ED50: 4.3 mg/kg
[4]; [7]
  inhibition in vivo at 3 mg/kg: 26.9 ± 5.2%
[4]; [8]
  inhibition in vivo at 10 mg/kg: 49.5 ± 5.1%

## O=C(O)Cc1cccc2c(C3CCCCC3)nccc12 [Compound L, 1-cyclohexylisoquinoline-5-acetic acid]
Stomach mucosal membrane; 10 mg/kg
  Gastric ulceration: bleeding at the mucosal membrane: 0/5
  Gastric ulceration: damage beneath the mucosal membrane: 0/5
Stomach mucosal membrane; 30 mg/kg
  Gastric ulceration: bleeding at the mucosal membrane: 3/5
  Gastric ulceration: damage beneath the mucosal membrane: 3/5
Toxicity test (LD50)
  LD50 at 168 h: > 300 mg/kg
[2]; [5]
  ED50: 8.5 mg/kg
[4]; [6]
  inhibition in vivo at 1 mg/kg: 9.7 ± 2%
[4]; [7]
  inhibition in vivo at 3 mg/kg: 17.4 ± 5.2%
[4]; [8]
  inhibition in vivo at 10 mg/kg: 43.1 ± 4.3%

## CCCCC1C(=O)N(c2ccccc2)N(c2ccccc2)C1=O [Phenylbutazone, reference compound]
[2]; [5]
  ED50: 109 mg/kg
Digestive organs
  troubles in the digestive organs: fairly heavy troubles in the digestive organs
[3]
  IC50: 26.1 µM

## CC(=O)Oc1ccccc1C(=O)O [Aspirin, reference compound]
Digestive organs
  troubles in the digestive organs: fairly heavy troubles in the digestive organs
Platelet aggregation; Platelet
  IC50: 15.8 µM
